We go through five compounds from PMC9788584, “Quinoxalinones as A Novel Inhibitor Scaffold for EGFR (L858R/T790M/C797S) Tyrosine Kinase: Molecular Docking, Biological Evaluations, and Computational Insights” (Molecules, 2022).

Structures are written as SMILES. Read-outs that look alike come from different tables or passages of the source. Where only a bound is given, the exact number is not on record here.

The target in data set [1] is EGFR (L858R/T790M/C797S) TK (Homo sapiens, UniProt P00533, C797S/L858R/T790M). Nature of the data set: ADP-Glo kinase assay, EGFR tyrosine kinase inhibition. It counts as biochemical. As to the method:
The inhibitory activity of each candidate compound towards EGFR triple mutations was performed using the luminescent ADP-Glo™ kinase assay (Promega Corporation, Madison, WI, USA) as previously described. […] Subsequently, 10 μL of kinase detection reagent was added and incubated at room temperature for 30 min to convert ADP into ATP. The generated luminescence by ATP in a luciferase reaction was then measured using a microplate reader (Infinite M200 microplate reader, Tecan, Männedorf, Switzerland), which corresponds to kinase activity. All assays were performed in triplicate and the obtained data were represented as the relative inhibition (%) of inhibitors compared to the control with no inhibitor as shown in Equation (1); (1) % relative inhibition=positive−negative−sample−negative/positive−negative×100
(In general: ADP-Glo first removes unused ATP, then detects ADP through luciferase.)

For data set [2], the system named is H1975 lung cancer cells expressing L858R/T790M EGFR. Nature of the data set: MTT cytotoxicity assay on H1975 cells. To be noted: read-out: IC50, cytotoxic effect on H1975 cell viability. Type of data set: cell-based, Human. A general note: Formazan colour is commonly taken as a measure of viable cells.
Method: Both cells were maintained to grow at 37 °C in a humidified 5% CO2 atmosphere.
The studied cell lines were seeded into 96-well plates (cell density of 6000 cells/well) and were incubated overnight. […] After incubation, the effect of compounds on cell viability was measured using the MTT assay as follows: 10 μL of MTT solution (5 mg/mL) was added and then incubated for 3 h. The medium was removed, followed by adding 50 μL of DMSO to dissolve the crystal formazan product. The purple solution of crystal formazan was then measured at 570 nm using a microplate spectrophotometer (Infinite M200 microplate reader, Tecan, Männedorf, Switzerland). The complete medium with 1.0% DMSO (no inhibitor) was used as a control in accordance with the reaction containing 1.0% DMSO of all wells.
The nature of data set [3]: MTT cytotoxicity assay on Vero cells. As to conditions: monkey, Vero cells (normal kidney epithelial cell line), IC50, cytotoxic effect on Vero cell viability.
Method: (§1) Human NSCLC cell lines, H1975 (ATCC CRL-5908) and monkey’s normal kidney epithelial cell line (Vero, ATCC CCL-81) were purchased from American Type Culture Collection (ATCC, Manassas, VA, USA). H1975 cells were grown in RPMI-1640 medium supplemented with 10% FBS, 100 U/mL penicillin, and 100 µg/mL streptomycin. Vero cells were grown in Dulbecco’s modified Eagle’s minimal essential medium (DMEM; Gibco, Grand Island, NY, USA) containing 10% fetal bovine serum (FBS; Gibco), 100 U/mL penicillin, and 100 µg/mL streptomycin (Gibco). Both cells were maintained to grow at 37 °C in a humidified 5% CO2 atmosphere.
(§2) The studied cell lines were seeded into 96-well plates (cell density of 6000 cells/well) and were incubated overnight. Then, cells were treated with screened compounds and the known drug with various concentrations (125, 62.5, 31.25, 15.63, 7.81, 3.91, 1.95, and 0.98 μM) for 72 h. After incubation, the effect of compounds on cell viability was measured using the MTT assay as follows: 10 μL of MTT solution (5 mg/mL) was added and then incubated for 3 h. The medium was removed, followed by adding 50 μL of DMSO to dissolve the crystal formazan product. The purple solution of crystal formazan was then measured at 570 nm using a microplate spectrophotometer (Infinite M200 microplate reader, Tecan, Männedorf, Switzerland). The complete medium with 1.0% DMSO (no inhibitor) was used as a control in accordance with the reaction containing 1.0% DMSO of all wells.
A further data set concerns Vero normal kidney cells. Kind of data set: MTT cytotoxicity assay on Vero cells. To be noted: read-out: IC50, cytotoxic effect on Vero cell viability, 72 h.
The nature of a further data set: in vitro. As to conditions: monkey, IC50, cytotoxic effect on Vero cell viability.
Where [4] appears, read: enzyme-based assay, mean ± SEM, triplicate, read-out: IC50, kinase inhibitory activity against EGFR (L858R/T790M/C797S).
[5] abbreviates: Homo sapiens, NCI-H1975, MTT, 72 h.

Sequence of EGFR (L858R/T790M/C797S) TK (P00533 25-1210 T790M/C797S/L858R): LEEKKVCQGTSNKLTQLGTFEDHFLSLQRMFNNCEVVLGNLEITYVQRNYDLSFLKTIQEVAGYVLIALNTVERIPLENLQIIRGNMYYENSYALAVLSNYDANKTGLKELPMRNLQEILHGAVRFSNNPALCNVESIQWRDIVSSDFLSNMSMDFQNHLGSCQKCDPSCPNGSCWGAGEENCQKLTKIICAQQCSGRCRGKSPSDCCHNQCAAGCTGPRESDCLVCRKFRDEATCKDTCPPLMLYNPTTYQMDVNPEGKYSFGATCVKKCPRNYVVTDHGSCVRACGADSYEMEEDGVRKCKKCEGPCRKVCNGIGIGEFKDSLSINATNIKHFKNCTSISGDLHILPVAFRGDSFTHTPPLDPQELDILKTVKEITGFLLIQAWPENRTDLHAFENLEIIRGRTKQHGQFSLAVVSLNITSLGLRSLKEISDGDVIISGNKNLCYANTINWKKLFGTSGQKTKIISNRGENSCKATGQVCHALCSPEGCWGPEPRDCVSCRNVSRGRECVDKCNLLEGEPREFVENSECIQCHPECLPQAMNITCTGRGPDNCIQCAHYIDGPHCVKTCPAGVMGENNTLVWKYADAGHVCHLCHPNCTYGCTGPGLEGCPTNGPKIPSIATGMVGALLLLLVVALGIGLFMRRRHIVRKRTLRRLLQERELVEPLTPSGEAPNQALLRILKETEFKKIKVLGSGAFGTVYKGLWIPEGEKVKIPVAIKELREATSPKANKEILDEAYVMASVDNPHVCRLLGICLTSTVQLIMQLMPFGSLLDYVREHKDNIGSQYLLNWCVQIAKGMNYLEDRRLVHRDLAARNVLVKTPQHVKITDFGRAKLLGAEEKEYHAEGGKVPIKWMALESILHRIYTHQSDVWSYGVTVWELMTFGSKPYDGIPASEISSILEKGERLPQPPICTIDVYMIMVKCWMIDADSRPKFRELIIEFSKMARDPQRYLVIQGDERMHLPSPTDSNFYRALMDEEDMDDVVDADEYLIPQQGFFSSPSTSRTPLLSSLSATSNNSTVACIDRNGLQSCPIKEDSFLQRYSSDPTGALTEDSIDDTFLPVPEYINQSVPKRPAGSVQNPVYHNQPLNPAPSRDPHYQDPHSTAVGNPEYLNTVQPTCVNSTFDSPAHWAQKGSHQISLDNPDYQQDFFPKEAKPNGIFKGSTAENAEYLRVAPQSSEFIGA
Method for Vero normal kidney cells: as §1, §2
Method for in vitro: as §1, §2

As to `O=c1c(-n2cncn2)nc2ccccc2n1Cc1ccccc1` [CPD4], the IC50 in data set [1] (setting [4]) came to 0.00304 ± 0.00124 µM; in data set [2] (setting [5]) it was 3.47 ± 2.2 µM. The compound also yielded an IC50 at 72 h in data set [3] greater than 20 µM.

Consider `CCn1c(=O)c(-n2cnc3ccccc32)nc2ccccc21` [CPD15], for which the IC50 in data set [1] was 0.0065 ± 0.00302 µM; in data set [2] (MTT, 72 h) it was 31.2 ± 3.4 µM; with Vero normal kidney cells, greater than 50 µM. In data set [3], this compound yielded an IC50 at 72 h greater than 100 µM.

Regarding `O=c1[nH]c2ccccc2nc1OCc1ccccc1` [CPD16], the values for the IC50 in data set [1] (setting [4]) and in data set [2] (setting [5]) were 0.0105 ± 0.0011 µM and 79.4 ± 4.35 µM, respectively. In addition, in data set [3], the IC50 at 72 h was greater than 100 µM.

As for `CCOc1nc2ccccc2n(Cc2ccccc2)c1=O` [CPD21, 1-Benzyl-3-ethoxyquinoxalin-2(1H)-one], the IC50 in data set [1] (setting [4]) is 0.00381 ± 0.0018 µM; in data set [2] (setting [5]), 44.7 ± 2.34 µM. The compound also came in with an IC50 at 72 h in data set [3] greater than 100 µM.

Turning to `C=CC(=O)Nc1cc(Nc2nccc(-c3cn(C)c4ccccc34)n2)c(OC)cc1N(C)CCN(C)C` [Osimertinib, reference compound], the IC50 in data set [2] (Homo sapiens, NCI-H1975, 72 h) is 18.3 ± 2.02 µM. The same compound showed an IC50 at 72 h in “in vitro” greater than 100 µM.
